# From BindingDB's records for patent US20240139197 (The Wistar Institute of Anatomy and Biology, 2024)
# pIC50: −log10 of the molar value.
# Assays:
# Assay in all cases: Biochemical Assay
# [1] = target: Lysine-specific demethylase 5B (Homo sapiens, UniProt Q9UGL1)
# [2] = target: Lysine-specific demethylase 5A (Homo sapiens, UniProt P29375)
# [3] = target: T1, Lysine-specific demethylase 4C (Homo sapiens, UniProt Q9H3R0)
# T1 sequence (Q9H3R0 whole entry): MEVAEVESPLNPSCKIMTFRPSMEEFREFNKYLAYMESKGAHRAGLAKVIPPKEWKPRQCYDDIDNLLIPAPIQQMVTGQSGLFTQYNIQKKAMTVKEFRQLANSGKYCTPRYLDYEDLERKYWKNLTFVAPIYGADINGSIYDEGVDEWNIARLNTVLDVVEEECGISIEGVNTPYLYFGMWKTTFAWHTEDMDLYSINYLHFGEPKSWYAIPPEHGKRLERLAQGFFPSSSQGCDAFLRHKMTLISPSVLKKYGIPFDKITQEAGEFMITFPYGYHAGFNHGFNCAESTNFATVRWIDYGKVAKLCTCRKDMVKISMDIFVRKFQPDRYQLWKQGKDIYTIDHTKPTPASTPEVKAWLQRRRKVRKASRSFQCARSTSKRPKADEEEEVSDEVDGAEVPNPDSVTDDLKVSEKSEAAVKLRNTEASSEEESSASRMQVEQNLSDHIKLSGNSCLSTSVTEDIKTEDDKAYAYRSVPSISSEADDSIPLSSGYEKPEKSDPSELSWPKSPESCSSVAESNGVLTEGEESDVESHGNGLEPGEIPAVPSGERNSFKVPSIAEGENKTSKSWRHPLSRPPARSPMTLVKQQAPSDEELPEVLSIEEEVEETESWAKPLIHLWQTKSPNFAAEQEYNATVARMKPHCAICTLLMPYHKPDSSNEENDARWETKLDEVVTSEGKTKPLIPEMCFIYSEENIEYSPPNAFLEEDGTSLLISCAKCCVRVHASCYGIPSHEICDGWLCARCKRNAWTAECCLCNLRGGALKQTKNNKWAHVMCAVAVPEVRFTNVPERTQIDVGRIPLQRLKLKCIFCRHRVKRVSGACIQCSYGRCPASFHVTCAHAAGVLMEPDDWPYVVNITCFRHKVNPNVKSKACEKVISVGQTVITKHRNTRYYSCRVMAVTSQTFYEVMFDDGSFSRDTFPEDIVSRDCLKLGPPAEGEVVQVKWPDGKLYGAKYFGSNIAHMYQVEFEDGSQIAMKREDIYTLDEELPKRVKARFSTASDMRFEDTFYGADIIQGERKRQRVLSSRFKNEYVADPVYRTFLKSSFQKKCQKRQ
# Chain of Lysine-specific demethylase 5A (P29375 whole entry): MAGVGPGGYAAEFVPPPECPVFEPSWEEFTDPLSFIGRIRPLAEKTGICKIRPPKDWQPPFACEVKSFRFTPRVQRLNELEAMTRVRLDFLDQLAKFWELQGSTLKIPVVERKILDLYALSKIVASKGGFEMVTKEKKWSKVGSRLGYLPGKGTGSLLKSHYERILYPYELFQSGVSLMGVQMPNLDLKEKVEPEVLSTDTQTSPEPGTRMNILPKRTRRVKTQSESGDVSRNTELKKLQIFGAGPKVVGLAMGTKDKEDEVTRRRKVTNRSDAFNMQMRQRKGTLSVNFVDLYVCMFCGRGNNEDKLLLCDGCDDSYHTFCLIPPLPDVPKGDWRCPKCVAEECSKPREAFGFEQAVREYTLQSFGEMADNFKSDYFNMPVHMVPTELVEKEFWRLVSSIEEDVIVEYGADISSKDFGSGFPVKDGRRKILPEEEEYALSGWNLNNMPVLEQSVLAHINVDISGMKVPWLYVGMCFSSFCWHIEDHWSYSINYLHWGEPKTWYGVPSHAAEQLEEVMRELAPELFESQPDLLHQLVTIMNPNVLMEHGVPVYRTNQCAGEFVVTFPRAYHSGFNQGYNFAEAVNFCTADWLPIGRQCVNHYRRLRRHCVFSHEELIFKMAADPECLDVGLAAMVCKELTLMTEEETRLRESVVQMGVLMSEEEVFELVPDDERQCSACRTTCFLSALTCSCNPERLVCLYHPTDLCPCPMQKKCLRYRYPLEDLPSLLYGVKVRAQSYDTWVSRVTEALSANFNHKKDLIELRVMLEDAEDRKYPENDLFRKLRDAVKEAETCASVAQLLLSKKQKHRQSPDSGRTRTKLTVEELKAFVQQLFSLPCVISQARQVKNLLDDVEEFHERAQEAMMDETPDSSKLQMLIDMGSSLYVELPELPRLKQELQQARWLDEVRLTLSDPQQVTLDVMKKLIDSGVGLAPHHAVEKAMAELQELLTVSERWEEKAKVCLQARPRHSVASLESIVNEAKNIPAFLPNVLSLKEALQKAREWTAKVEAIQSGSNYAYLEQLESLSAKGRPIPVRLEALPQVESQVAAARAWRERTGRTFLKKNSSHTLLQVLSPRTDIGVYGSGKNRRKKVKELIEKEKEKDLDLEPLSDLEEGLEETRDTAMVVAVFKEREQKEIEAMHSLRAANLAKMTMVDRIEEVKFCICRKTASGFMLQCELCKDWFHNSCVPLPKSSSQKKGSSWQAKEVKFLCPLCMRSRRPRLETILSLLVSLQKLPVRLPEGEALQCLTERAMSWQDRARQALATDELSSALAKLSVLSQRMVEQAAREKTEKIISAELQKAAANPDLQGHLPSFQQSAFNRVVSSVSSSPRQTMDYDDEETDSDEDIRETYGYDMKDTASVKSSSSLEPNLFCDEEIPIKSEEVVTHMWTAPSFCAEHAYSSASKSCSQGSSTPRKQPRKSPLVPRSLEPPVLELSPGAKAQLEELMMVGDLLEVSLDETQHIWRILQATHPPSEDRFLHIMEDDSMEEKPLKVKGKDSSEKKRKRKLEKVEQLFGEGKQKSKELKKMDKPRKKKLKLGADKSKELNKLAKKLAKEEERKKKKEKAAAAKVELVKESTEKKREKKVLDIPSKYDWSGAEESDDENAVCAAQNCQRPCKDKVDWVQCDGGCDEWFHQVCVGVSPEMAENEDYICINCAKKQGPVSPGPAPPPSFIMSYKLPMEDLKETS
# Chain of Lysine-specific demethylase 5B (Q9UGL1 whole entry): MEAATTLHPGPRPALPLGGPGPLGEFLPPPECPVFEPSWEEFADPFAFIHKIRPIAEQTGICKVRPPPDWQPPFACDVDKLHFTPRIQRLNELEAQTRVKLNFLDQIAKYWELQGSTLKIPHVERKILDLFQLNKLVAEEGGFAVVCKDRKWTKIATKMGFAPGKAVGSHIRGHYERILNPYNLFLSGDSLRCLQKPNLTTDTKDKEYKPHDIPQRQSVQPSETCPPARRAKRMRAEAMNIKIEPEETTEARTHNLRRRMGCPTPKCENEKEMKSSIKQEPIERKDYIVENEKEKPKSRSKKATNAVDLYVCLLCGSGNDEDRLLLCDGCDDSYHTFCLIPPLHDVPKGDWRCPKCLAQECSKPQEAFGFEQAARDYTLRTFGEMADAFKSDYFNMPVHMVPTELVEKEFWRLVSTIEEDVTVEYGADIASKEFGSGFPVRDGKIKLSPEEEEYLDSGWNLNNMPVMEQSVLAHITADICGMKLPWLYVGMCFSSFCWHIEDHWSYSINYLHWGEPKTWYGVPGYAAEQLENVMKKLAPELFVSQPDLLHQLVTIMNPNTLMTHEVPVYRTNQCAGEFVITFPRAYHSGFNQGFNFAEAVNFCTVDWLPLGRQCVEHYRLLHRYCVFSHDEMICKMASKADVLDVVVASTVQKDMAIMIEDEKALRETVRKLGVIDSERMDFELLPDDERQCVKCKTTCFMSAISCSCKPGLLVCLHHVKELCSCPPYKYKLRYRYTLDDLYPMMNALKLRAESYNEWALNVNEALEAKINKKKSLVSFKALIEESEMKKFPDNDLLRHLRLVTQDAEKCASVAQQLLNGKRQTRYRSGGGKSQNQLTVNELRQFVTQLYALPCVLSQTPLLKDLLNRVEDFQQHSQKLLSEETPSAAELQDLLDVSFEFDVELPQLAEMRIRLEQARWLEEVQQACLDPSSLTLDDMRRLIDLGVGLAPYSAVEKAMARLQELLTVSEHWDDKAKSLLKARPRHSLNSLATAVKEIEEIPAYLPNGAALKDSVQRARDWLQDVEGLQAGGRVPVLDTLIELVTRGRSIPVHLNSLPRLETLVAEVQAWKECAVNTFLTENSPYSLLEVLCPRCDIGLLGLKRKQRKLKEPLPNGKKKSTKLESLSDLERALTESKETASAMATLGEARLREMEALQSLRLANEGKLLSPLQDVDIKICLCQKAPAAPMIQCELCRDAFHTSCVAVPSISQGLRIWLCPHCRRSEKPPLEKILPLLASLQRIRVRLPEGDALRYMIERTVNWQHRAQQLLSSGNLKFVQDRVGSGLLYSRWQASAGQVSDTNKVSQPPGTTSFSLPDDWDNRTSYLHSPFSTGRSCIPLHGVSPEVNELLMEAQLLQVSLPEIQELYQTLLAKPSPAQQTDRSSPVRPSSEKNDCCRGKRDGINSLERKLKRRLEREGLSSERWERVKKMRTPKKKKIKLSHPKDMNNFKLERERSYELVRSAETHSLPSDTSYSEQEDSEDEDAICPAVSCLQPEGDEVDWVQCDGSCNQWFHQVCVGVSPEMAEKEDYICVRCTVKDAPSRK
pIC50 [1],pIC50 [2],pIC50 [3],SMILES
8.52,–,–,"COc1cc(Cl)ccc1COc1ccnn1-c1cc(C(=O)O)ccn1 [US20240139197, Compound 34]"
–,6.77,–,"CC(C)c1c[nH]c2c(C#N)cnn2c1=O [US20240139197, Compound 7]"
–,7.74,–,"CCOc1cc(Cl)ccc1COc1ccnn1-c1cc(C(=O)O)ccn1 [US20240139197, Compound 35]"
8.40,7.85,7.27,"Bc1cc(Cl)ccc1COc1ccnn1-c1cc(C(=O)O)ccn1 [US20240139197, Compound 21]"
7.44,7.60,–,"O=C(O)c1ccnc(-n2nccc2OCc2ccc(Cl)cc2OCC2CC2)c1 [US20240139197, Compound 36]"
